Measured values as given in DBAASP.
Converted amounts (≈) assume the structure as drawn.

Tests used:
Assay in all cases: ≥ marks a high value that may be exact or a test limit, other limits are often not marked, values filed in µg/mL are converted to µM
Pseudomonas aeruginosa = test system: Pseudomonas aeruginosa
Bacillus subtilis 168 = test system: Bacillus subtilis 168
Escherichia coli B = test system: Escherichia coli B
Staphylococcus aureus = test system: Staphylococcus aureus
[1] = test system: Staphylococcus aureus ATCC 2592
[2] = test system: Acinetobacter baumannii ATCC 19606
[3] = test system: Staphylococcus aureus ATCC 25923
[4] = test system: Enterococcus faecalis ATCC 29212
[5] = test system: Pseudomonas aeruginosa ATCC 27853
[6] = test system: Staphylococcus epidermidis ATCC 12228
[7] = test system: Klebsiella pneumoniae ATCC 700603
[8] = test system: Escherichia coli ATCC 25922
[9] = test system: Bacillus subtilis ATCC 23857
Candida albicans = test system: Candida albicans
[10] = test system: Bacillus subtilis ATCC 6633
[11] = test system: Salmonella enterica subsp. enterica serovar Pullorum C79-13
[12] = test system: Salmonella enterica subsp. enterica serovar Typhimurium C77-31
[13] = test system: Staphylococcus aureus ATCC 29213
[14] = test system: Candida albicans ATCC 10231
[15] = test system: Candida albicans ATCC 2002

Row | MIC (Pseudomonas aeruginosa) [µM] | MIC (Bacillus subtilis 168) [µM] | MIC (Escherichia coli B) [µM] | MIC (Staphylococcus aureus) [µM] | MIC [8] [µM] | SMILES | other results
1 | > 100 | 3.3 (≈ 4.78 µg/mL) | 20 (≈ 29 µg/mL) | > 100 |  | CC[C@H](C)[C@H](NC(=O)[C@H](CC(C)C)NC(=O)[C@H](Cc1cnc[nH]1)NC(=O)[C@@H]1CCCN1C(=O)[C@H](CC(C)C)NC(=O)[C@@H](NC(=O)[C@H](CCCCN)NC(=O)[C@H](CO)NC(=O)[C@H](Cc1c[nH]c2ccccc12)NC(=O)[C@H](CCSC)NC(=O)CN)[C@@H](C)CC)C(=O)N[C@@H](CCCN=C(N)N)C(N)=O [GMWSKILPHLIR] | 
2 | 93 (≈ 133 µg/mL) | 2.2 (≈ 3.13 µg/mL) | 28.3 (≈ 40.3 µg/mL) | 100 (≈ 142 µg/mL) |  | CC[C@H](C)[C@H](NC(=O)[C@H](CCCCN)NC(=O)[C@H](CO)NC(=O)[C@H](Cc1c[nH]c2ccccc12)NC(=O)[C@H](CCSC)NC(=O)CN)C(=O)N[C@@H](CC(C)C)C(=O)NCC(=O)N[C@@H](Cc1cnc[nH]1)C(=O)N[C@@H](CC(C)C)C(=O)N[C@@H](CCCCN)C(=O)N[C@@H](CCCN=C(N)N)C(N)=O [GMWSKILGHLKR] | 
3 |  |  |  |  | 4.44 (≈ 8.84 µg/mL) | CC[C@H](C)[C@H](NC(=O)[C@H](CCC(=O)O)NC(=O)[C@H](CCCCN)NC(=O)[C@H](CCSC)NC(=O)[C@H](CCCCN)NC(=O)[C@H](C)NC(=O)[C@H](CC(C)C)NC(=O)[C@H](Cc1ccccc1)NC(=O)[C@H](C)NC(=O)[C@H](CCC(N)=O)NC(=O)[C@H](CC(C)C)NC(=O)[C@H](CCCN=C(N)N)NC(=O)CN)C(=O)N[C@@H](C)C(=O)N[C@@H](C)C(=O)N[C@@H](CCC(N)=O)C(=O)N[C@H](C(=O)N[C@@H](CC(C)C)C(N)=O)[C@@H](C)O [GRLQAFLAKMKEIAAQTL] | MIC (Candida albicans): 1.77 µM (≈ 3.52 µg/mL); MIC [10]: 2.22 µM (≈ 4.41 µg/mL); MIC [5]: 7.1 µM (≈ 14.1 µg/mL)
4 |  |  |  |  | 64 (≈ 193 µg/mL) | CC(C)C[C@H](NC(=O)[C@@H](NC(=O)[C@@H](NC(=O)[C@@H](N)CC(C)C)C(C)C)[C@@H](C)O)C(=O)N[C@H](C(=O)N[C@@H](Cc1ccccc1)C(=O)N[C@H](C(=O)NCC(=O)NCC(=O)NCC(=O)N[C@@H](Cc1c[nH]c2ccccc12)C(=O)N[C@@H](CCCCN)C(=O)N[C@@H](Cc1c[nH]c2ccccc12)C(=O)N[C@@H](CCCCN)C(=O)N[C@@H](Cc1c[nH]c2ccccc12)C(=O)N[C@@H](CCC(=O)O)C(=O)N[C@@H](CC(N)=O)C(=O)NCC(=O)N[C@@H](CCCCN)C(=O)N[C@@H](Cc1c[nH]c2ccccc12)C(=O)N[C@@H](CCCCN)C(=O)N[C@@H](Cc1c[nH]c2ccccc12)C(=O)N[C@@H](CCCCN)C(=O)N[C@@H](Cc1c[nH]c2ccccc12)C(=O)O)C(C)C)C(C)C [LVTLVFVGGGWKWKWENGKWKWKW] | MIC [4]: 8 µM (≈ 24.2 µg/mL); MIC [6]: > 128 µM; MIC [11]: ≥ 128 µM; MIC [12]: ≥ 128 µM; MIC [13]: > 128 µM
5 | > 100 | 18.3 (≈ 22.4 µg/mL) | ≥ 100 | > 100 |  | CC[C@H](C)[C@H](NC(=O)[C@H](CC(C)C)NC(=O)[C@H](Cc1cnc[nH]1)NC(=O)CNC(=O)[C@H](CC(C)C)NC(=O)[C@@H](NC(=O)[C@H](CCCCN)NC(=O)[C@H](CO)NC(=O)[C@@H](N)Cc1c[nH]c2ccccc12)[C@@H](C)CC)C(=O)N[C@@H](CCCN=C(N)N)C(N)=O [WSKILGHLIR] | 
6 | > 100 | ≥ 40 | ≥ 40 | > 100 |  | CC[C@H](C)[C@H](N)C(=O)N[C@@H](CC(C)C)C(=O)NCC(=O)N[C@@H](CCCCN)C(=O)N[C@H](C(=O)N[C@H](C(=O)N[C@@H](CCCCN)C(=O)N[C@H](C(=O)N[C@H](C(=O)N[C@@H](CCCCN)C(N)=O)C(C)C)C(C)C)[C@@H](C)CC)[C@@H](C)CC [ILGKIIKVVK] | 
7 | > 100 | ≥ 200 | ≥ 100 | > 100 |  | CC[C@H](C)[C@H](NC(=O)[C@H](CCCCN)NC(=O)[C@H](CCCCN)NC(=O)[C@H](Cc1c[nH]c2ccccc12)NC(=O)[C@H](CC(N)=O)NC(=O)[C@@H](N)C(C)C)C(=O)N[C@@H](CC(C)C)C(=O)NCC(N)=O [VNWKKILG] | 

The remaining lines, values behind:

Row | SMILES | MIC (Pseudomonas aeruginosa) [µM] | MIC (Bacillus subtilis 168) [µM] | MIC (Escherichia coli B) [µM] | MIC (Staphylococcus aureus) [µM] | MIC [8] [µM] | other results
8 | CC[C@H](C)[C@@H]1NC(=O)[C@H](CO)NC(=O)[C@H](CCCCN)NC(=O)[C@H]([C@@H](C)O)NC(=O)[C@H](Cc2c[nH]c3ccccc23)NC(=O)[C@@H](NC(=O)CN)CSSC[C@@H](C(=O)N[C@@H](Cc2ccccc2)C(=O)O)NC(=O)[C@@H]2CCCN2C(=O)[C@H](CCCCN)NC(=O)[C@@H]2CCCN2C(=O)[C@@H]2CCCN2C1=O [GCWTKSIPPKPCF] |  |  |  |  |  | MIC [1]: 2.22 µM (≈ 3.25 µg/mL)
9 | CC[C@H](C)[C@H](NC(=O)[C@H](Cc1cnc[nH]1)NC(=O)[C@H](CCCCN)NC(=O)[C@H](CC(C)C)NC(=O)[C@H](CC(C)C)NC(=O)[C@H](CO)NC(=O)[C@H](CCSC)NC(=O)[C@H](Cc1c[nH]c2ccccc12)NC(=O)[C@H](CCCCN)NC(=O)CN)C(=O)N[C@@H](Cc1c[nH]c2ccccc12)C(=O)N[C@@H](CCCCN)C(N)=O [GKWMSLLKHIWK] | 25 (≈ 38.1 µg/mL) | 1.3 (≈ 1.98 µg/mL) | 5 (≈ 7.63 µg/mL) | 12.2 (≈ 18.6 µg/mL) |  | 
10 | CC[C@H](C)[C@H](NC(=O)[C@H](CO)NC(=O)[C@H](CC(C)C)NC(=O)[C@H](Cc1ccccc1)NC(=O)CN)C(=O)N[C@@H](CC(C)C)C(=O)N[C@@H](CCCCN)C(=O)N[C@@H](CCCCN)C(=O)N[C@H](C(=O)N[C@@H](CC(C)C)C(=O)N[C@@H](C)C(=O)N[C@@H](CCCCN)C(=O)N[C@H](C(=O)N[C@@H](CCSC)C(=O)N[C@@H](C)C(=O)N[C@@H](Cc1cnc[nH]1)C(=O)N[C@@H](CCSC)C(=O)N[C@@H](CCCCN)C(N)=O)C(C)C)C(C)C [GFLSILKKVLAKVMAHMK] | 18.3 (≈ 36.8 µg/mL) | 1.3 (≈ 2.62 µg/mL) | 1.6 (≈ 3.22 µg/mL) | 4.7 (≈ 9.46 µg/mL) |  | 
11 | CC(C)C[C@H](NC(=O)[C@H](C)NC(=O)[C@@H](NC(=O)[C@H](CCCCN)NC(=O)[C@H](C)NC(=O)[C@H](CCCN=C(N)N)NC(=O)[C@H](CCCCN)NC(=O)[C@H](CC(C)C)NC(=O)[C@H](C)NC(=O)CN)[C@@H](C)O)C(N)=O [GALKRAKTAL] |  |  |  |  | > 512 | MIC [2]: > 512 µM; MIC [3]: > 512 µM; MIC [4]: > 512 µM; MIC [5]: > 512 µM; MIC [6]: > 512 µM; MIC [7]: > 512 µM; MIC [9]: ≥ 512 µM
12 | CC[C@H](C)[C@H](NC(=O)[C@H](CCCN=C(N)N)NC(=O)[C@H](CCCCN)NC(=O)[C@H](Cc1ccccc1)NC(=O)[C@H](Cc1ccccc1)NC(=O)CN)C(=O)N[C@@H](CCCN=C(N)N)C(=O)N[C@H](C(=O)N[C@@H](Cc1ccccc1)C(=O)N[C@@H](Cc1ccccc1)C(N)=O)[C@@H](C)O [GFFKRIRTFF] |  |  |  |  | 32 (≈ 42.2 µg/mL) | MIC [2]: 64 µM (≈ 84.3 µg/mL); MIC [3]: 16 µM (≈ 21.1 µg/mL); MIC [4]: 64 µM (≈ 84.3 µg/mL); MIC [5]: 4 µM (≈ 5.27 µg/mL); MIC [6]: 64 µM (≈ 84.3 µg/mL); MIC [7]: 32 µM (≈ 42.2 µg/mL); MIC [9]: 16 µM (≈ 21.1 µg/mL)
13 | CC(C)C[C@H](NC(=O)[C@H](CC(C)C)NC(=O)[C@H](CCCN=C(N)N)NC(=O)[C@H](CCCN=C(N)N)NC(=O)[C@H](CC(C)C)NC(=O)[C@@H](N)CC(C)C)C(=O)N[C@@H](CCCN=C(N)N)C(=O)N[C@@H](CCCN=C(N)N)C(N)=O [LLRRLLRR] |  |  |  |  |  | MIC [9]: ≥ 57.1 µM; MIC [14]: 114 µM (≈ 125 µg/mL)
14 | CC[C@H](C)[C@H](NC(=O)CNC(=O)CNC(=O)[C@H](C)NC(=O)[C@H](CCCCN)NC(=O)[C@H](C)N)C(=O)NCC(=O)NCC(=O)N[C@@H](Cc1cnc[nH]1)C(=O)N[C@H](C(=O)N[C@H](C(=O)NCC(=O)N[C@@H](CCC(N)=O)C(=O)N[C@H](C(=O)N[C@H](C(=O)NCC(=O)N[C@H](C(=O)N[C@@H](CCCN=C(N)N)C(=O)N[C@H](C(=O)N[C@@H](CCCN=C(N)N)C(=O)NCC(=O)N[C@@H](CC(C)C)C(=O)NCC(=O)NCC(=O)N[C@@H](CC(N)=O)C(=O)N[C@H](C(=O)O)C(C)C)[C@@H](C)CC)C(C)C)C(C)C)[C@@H](C)CC)[C@@H](C)CC)C(C)C [AKAGGIGGHVIGQIVGVRIRGLGGNV] |  |  |  |  | 20.4 (≈ 50 µg/mL) | MIC [1]: 2.57 µM (≈ 6.3 µg/mL); MIC [15]: 20.4 µM (≈ 50 µg/mL)
